Test results: patent US20140094365A1, “SYNERGISTIC WEED CONTROL FROM APPLICATIONS OF AMINOCYCLOPYRACHLOR AND TRICLOPYR” (Dow AgroSciences LLC, priority 2012, published 2014)

Key:
Test in all cases: Field trial, post-emergence foliar weed control
Type in all cases: in vivo
[1] = tested on: shepherd's purse (Capsella bursa-pastoris, CAPBP)
Source text: (§1) The (a) aminocyclopyrachlor or an agriculturally acceptable salt or ester thereof is mixed with or applied in combination with (b) triclopyr or an agriculturally acceptable salt or ester thereof in an amount sufficient to induce a synergistic herbicidal effect. […] As described in the Herbicide Handbook of the Weed Science Society of America, Ninth Edition, 2007, p. 429, “‘synergism’ [is] an interaction of two or more factors such that the effect when combined is greater than the predicted effect based on the response to each factor applied separately.” Synergistic in the herbicide context can mean that the use of (a) and (b) as defined above results in an increased weed control effect compared to the weed control effects that are possible with the use of (a) or (b) alone. In some embodiments, the damage or injury to the undesired vegetation caused by the compositions and methods disclosed herein is evaluated using a scale from 0% to 100%, when compared with the untreated control vegetation, wherein 0% indicates no damage to the undesired vegetation and 100% indicates complete destruction of the undesired vegetation. […] 22 (1967)
(§2) Field trials were conducted with applications made to established grassland with naturally occurring weed populations, or applications were made to bare ground with naturally occurring weed populations. The target plants were treated with post emergence foliar applications after they had reached at least 3-4 leaves or at least 2-5 inches in height. All treatments were applied using a randomized complete block trial design, with 3-4 replications per treatment.
(§3) Treatments consisted of aminocyclopyrachlor in acid form and triclopyr-butotyl, each in water and applied alone or in combination. Spray solutions were prepared using an appropriate amount of dilution to form a 2 liter (L) aqueous spray solution with active ingredients in single and two way combinations. Formulated compounds were applied to the plant material with a backpack sprayer equipped with 8003 or Turbojet nozzles calibrated to deliver 187 L/ha to 400 L/ha at a spray height of 18-20 inches (43-50 centimeters (cm)) above average plant canopy.
(§4) The treated plants were buckhorn plantain (Plantago lanceolata, PLALA), calvary clover (Medicago arabica, MEDAB), shepherd's purse (Capsella bursa-pastoris, CAPBP), common fiddleneck (Amsinckia intermedia, AMSIN), redmaids (Calandrinia ciliata, CLNCM), and broomweed (Sida acuta, SIDAC). The treated plots and control plots were rated blind at various intervals after application. Ratings were based on a scale of 0-100%, as discussed above, wherein 0% indicates no damage to the undesired vegetation and 100% indicates complete destruction of the undesired vegetation
(§5) Colby's equation was used to determine the herbicidal effects expected from the mixtures, as described above. The results were measured at 7 days, 14 days, 17 days, 24 days, 27 days, 60 days, and 72 days after the first application of the compositions. […] The herbicide tank mix combinations tested, application rates and ratios employed, plant species tested, and results are given below.

[2] = tested on: redmaids (Calandrinia ciliata, CLNCM); conditions: 17 DAYS
Source text: as §1, §2, §3, §4, §5

[3] = tested on: calvary clover (Medicago arabica, MEDAB)
Source text: as §1, §2, §3, §4, §5

[4] = tested on: common fiddleneck (Amsinckia intermedia, AMSIN)
Source text: as §1, §2, §3, §4, §5

[5] = tested on: broomweed (Sida acuta, SIDAC)
Source text: as §1, §2, §3, §4, §5

[6] = tested on: buckhorn plantain (Plantago lanceolata, PLALA)
Source text: as §1, §2, §3, §4, §5

In the case of `Nc1nc(C2CC2)nc(C(=O)O)c1Cl` [Aminocyclopyrachlor, 6-amino-5-chloro-2-cyclopropylpyrimidine-4-carboxylic acid], the “Mean % weed control” value ([1]; 17 DAYS, 18 g ae/ha alone) was 23.33%, the “Mean % weed control” value ([1]; 24 DAYS, 18 g ae/ha alone) was 20% and the “Mean % weed control” value ([2]; 35 g ae/ha alone) was 16.67%. The “Mean % weed control” value ([3]; 7 DAYS, 18 g ae/ha alone) was 20%, the “Mean % weed control” value ([3]; 14 DAYS, 18 g ae/ha alone) was 47.5% and the “Mean % weed control” value ([3]; 14 DAYS, 35 g ae/ha alone) was 47.5%. For the same compound, the “Mean % weed control” value ([3]; 27 DAYS, 18 g ae/ha alone) was 27.5%, the “Mean % weed control” value ([4]; 17 DAYS, 35 g ae/ha alone) was 0% and the “Mean % weed control” value ([4]; 24 DAYS, 35 g ae/ha alone) was 0%. The “Mean % weed control” value ([5]; 60 DAYS, 150 g ae/ha alone) was 53%, the “Mean % weed control” value ([5]; 72 DAYS, 150 g ae/ha alone) was 60% and the “Mean % weed control” value ([6]; 14 DAYS, 18 g ae/ha alone) was 37.5%. The “Mean % weed control” value ([6]; 14 DAYS, 35 g ae/ha alone) was 40%, the “Mean % weed control” value ([6]; 27 DAYS, 18 g ae/ha alone) was 22.5% and the “Mean % weed control” value ([6]; 27 DAYS, 35 g ae/ha alone (aminocyclopyrachlor)) was 35%.

With `CCCCOCCOC(=O)COc1nc(Cl)c(Cl)cc1Cl` [Triclopyr-butotyl] the “Mean % weed control” value ([1]; 17 DAYS, 35 g ae/ha alone) was 40%, the “Mean % weed control” value ([1]; 17 DAYS, 70 g ae/ha alone) was 46.67% and the “Mean % weed control” value ([1]; 24 DAYS, 35 g ae/ha alone) was 40%. For the same compound, the “Mean % weed control” value ([1]; 24 DAYS, 70 g ae/ha alone) was 58.33%, the “Mean % weed control” value ([2]; 70 g ae/ha alone) was 20% and the “Mean % weed control” value ([2]; 140 g ae/ha alone) was 23.33%. For the same compound, the “Mean % weed control” value ([3]; 7 DAYS, 70 g ae/ha alone) was 13.75%, the “Mean % weed control” value ([3]; 14 DAYS, 70 g ae/ha alone) was 10% and the “Mean % weed control” value ([3]; 27 DAYS, 35 g ae/ha alone) was 2.5%. For the same compound, the “Mean % weed control” value ([3]; 27 DAYS, 70 g ae/ha alone) was 5%, the “Mean % weed control” value ([4]; 17 DAYS, 70 g ae/ha alone) was 0% and the “Mean % weed control” value ([4]; 24 DAYS, 70 g ae/ha alone) was 0%. The “Mean % weed control” value ([5]; 60 DAYS, 360 g ae/ha alone) was 2%, the “Mean % weed control” value ([5]; 72 DAYS, 360 g ae/ha alone) was 10% and the “Mean % weed control” value ([6]; 14 DAYS, 70 g ae/ha alone) was 7.5%. The “Mean % weed control” value ([6]; 27 DAYS, 35 g ae/ha alone (triclopyr-butotyl)) was 2.5% and the “Mean % weed control” value ([6]; 27 DAYS, 70 g ae/ha alone) was 3.75%.
